Common to all, as to assay: NCI-60 cell line screen, 48 h
Experiment [1] deals with HCT-15 colon.
Experiment [2] deals with UACC-257 melanoma.
Experiment [3] has as its system SF-268 CNS.
For experiment [4], the system named is NCI-H23 lung.
The subject of experiment [5] is HS 578T breast.
Experiment [6] has as its system OVCAR-4 ovarian.
Experiment [7] has as its system A549 NSCLC.
Experiment [8] relates to UACC-62 melanoma.
In experiment [9] the test system is MDA-N.
Experiment [10] relates to SK-MEL-28 melanoma.

The values below come from PubChem BioAssay (NCI).

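Five concentrations, 48 hours, 96-well plates. TGI is the concentration that stops growth completely.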

With `C=C1CC2[C@H](C)C(=O)CCC2(C)C2=C1C1CCC(C(C)CCC(=C)C(C)C(=O)O)C1(C)CC2=O` (stereo not given in full), the TGI in experiment [1] is more than 100 µM; in experiment [2], 96 µM; in [3], more than 100 µM; in experiment [4], more than 100 µM; in experiment [5], more than 100 µM; in [6], more than 100 µM. For the same compound, the TGI in experiment [7], in experiment [8], in experiment [9] and in experiment [10] was more than 100 µM in each case.

Consider `O=S(=O)(O)c1cc(S(=O)(=O)O)c2c(N=Nc3ccc(N=Nc4ccccc4)cc3)c(O)ccc2c1`, for which the TGI in experiment [1], in [2], in experiment [3], in [4], in experiment [5] and in experiment [6] was more than 100 µM throughout. Also, the TGI in experiment [7], in experiment [8], in experiment [9] and in experiment [10] was more than 100 µM in each case.

For the compound `CC(=O)c1sc2[n+](c1C)C(=O)/C(=C\c1ccccc1Cl)S2`, the TGI in experiment [1] was 27.1 µM; in experiment [2], 42.3 µM; in experiment [3] it was 64.5 µM; in experiment [4], 38.5 µM; in experiment [5], more than 100 µM; in [6], more than 100 µM. Besides, the TGI in experiment [7] came out at 43.6 µM; in experiment [8], 25.8 µM; in [9] it was 44 µM; in experiment [10], 31.1 µM.

`O=c1cc(N2CCCC2)[nH]c(=O)n1-c1ccc(Cl)cc1`: the TGI in experiment [1], in [2], in [3], in [4], in [5] and in experiment [6] was more than 100 µM throughout. Also, the TGI in [7], in experiment [8], in [9] and in [10] was more than 100 µM each time.

As to `CN(C)/C=C/C=C(/C=N/S(=O)(=O)C(F)(F)F)C1C=CN(S(=O)(=O)C(F)(F)F)C=C1`, the TGI is 57.8 µM in experiment [1]; 77.7 µM in experiment [2]; more than 100 µM in experiment [3]; 56.6 µM in [4]; more than 100 µM in experiment [5]; 42.9 µM in [6]. Also, the TGI in experiment [7] is more than 100 µM; in experiment [8], 83.9 µM; in experiment [9], more than 100 µM; in experiment [10], more than 100 µM.

Take `CC(C)NC(=O)OCc1c(COC(=O)NC(C)C)c(-c2cc[n+](COC(=O)C3CCCCC3)cc2)n2c1CCC2`: the TGI in [1], in experiment [2], in experiment [3], in [4], in experiment [5] and in experiment [6] was more than 100 µM throughout. The TGI in experiment [7], in experiment [8], in experiment [9] and in experiment [10] was more than 100 µM each time.

In the case of `O=C1C(c2c(O)[nH]c3ccc(S(=O)(=O)NCCO)cc23)=Nc2ccccc21`, the TGI in experiment [1] was more than 100 µM; in experiment [2] it was more than 100 µM; in experiment [3], 51 µM; in experiment [4], more than 100 µM; in [5], more than 100 µM; in experiment [6], 14.5 µM. Also, the TGI in [7], in [8], in experiment [9] and in experiment [10] was more than 100 µM in each case.

For `C[C@H](CCC(=O)NCC(=O)O)[C@H]1CC[C@H]2[C@@H]3[C@H](O)C[C@@H]4C[C@H](O)CC[C@]4(C)[C@H]3CC[C@]12C`, the TGI in experiment [1], in experiment [2], in experiment [3], in [4], in experiment [5] and in [6] was more than 100 µM each time. In addition, the TGI in experiment [7], in [8], in [9] and in [10] was more than 100 µM each time.

For the compound `COC(=O)c1cc(/C=C\c2cc(OC)ccc2OC)ccc1OC`, the TGI in experiment [1] is more than 100 µM; in experiment [2], 96.5 µM; in experiment [3], more than 100 µM; in experiment [4], more than 100 µM; in experiment [5] it was more than 100 µM; in experiment [6], more than 100 µM. Moreover, the TGI is more than 100 µM in experiment [7], 90.8 µM in experiment [8], more than 100 µM in experiment [9] and 59.7 µM in [10].

Regarding `CC(C)(C)C1=C(Br)C(OC(=O)C(F)(F)F)(C(C)(C)C)OP1(=O)c1ccccc1` (stereo not given), the TGI in experiment [1] was more than 100 µM; in experiment [2], more than 100 µM; in experiment [3], more than 100 µM; in experiment [4], more than 100 µM; in experiment [5] it was 65.5 µM; in experiment [6], more than 100 µM. The TGI is more than 100 µM in experiment [7], 95.4 µM in experiment [8], more than 100 µM in [9] and more than 100 µM in experiment [10].

In the case of `C(#Cc1ccccc1)SC1=C(c2ccccc2)S/C(=C(\SC#Cc2ccccc2)c2ccccc2)S1`, the TGI in [1], in [2], in experiment [3], in [4], in experiment [5] and in experiment [6] was more than 100 µM throughout. The TGI in [7], in experiment [8], in experiment [9] and in [10] was more than 100 µM in each case.

Regarding `O=P(O)(O)CN1CCNCCN(CP(=O)(O)O)CC1`, the TGI in experiment [1], in experiment [2], in experiment [3], in experiment [4], in experiment [5] and in experiment [6] was more than 100 µM throughout. Moreover, the TGI was 58.7 µM in experiment [7], more than 100 µM in experiment [8], more than 72.9 µM in [9] and more than 100 µM in experiment [10].

On to `Cc1c(O)c(=O)ccn1CCc1ccc(O)cc1`, for which the TGI was more than 100 µM in [1]; 54.8 µM in experiment [2]; 33.3 µM in [3]; more than 100 µM in experiment [4]; 69.6 µM in experiment [5]; 76.2 µM in experiment [6]. The TGI in experiment [7] is more than 100 µM; in [8], 12.8 µM; in experiment [9], more than 100 µM; in experiment [10], more than 100 µM.

With `CC[C@@]1(O)C(=O)OCc2c1cc1n(c2=O)Cc2c-1nc1ccccc1c2/C=N\NC(=O)C(N)Cc1c[nH]c2ccccc12` (stereo not given in full), the TGI in experiment [1] was more than 100 µM; in experiment [2], more than 38 µM; in experiment [3], 19.6 µM; in [4] it was 5.42 µM; in [5], more than 100 µM; in experiment [6] it was more than 100 µM. In addition, the TGI is 25.9 µM in experiment [7], 0.712 µM in experiment [8], more than 100 µM in [9] and more than 100 µM in [10].

For the compound `COC(=O)c1ccc(NCC2=C(Br)C(=O)C=CC2=O)cc1Cl`, the TGI in [1] is 29.2 µM; in experiment [2] it was 72.2 µM; in experiment [3] it was 35.1 µM; in experiment [4] it was 45.8 µM; in experiment [5], more than 100 µM; in experiment [6], 62.3 µM. For the same compound, the TGI is more than 100 µM in experiment [7], 33.8 µM in experiment [8], 35.8 µM in [9] and 33.6 µM in experiment [10].

As to `CCOC(=O)C(C/C=C/CO)N(C)C(=O)OC(C)(C)C` (stereo not given), the TGI in experiment [1], in [2], in experiment [3], in experiment [4], in [5] and in [6] was more than 100 µM in each case. Further, the TGI in experiment [7], in experiment [8], in experiment [9] and in [10] was more than 100 µM in each case.

For `CCOC(=O)C1=C(C)N(Cc2ccccc2)C2(O)C=CC(=O)C3=C(O)c4ccccc4C(=O)C312` (stereo not given), the TGI in experiment [1] is 22 µM; in experiment [2], 32.6 µM; in experiment [3], 23.7 µM; in experiment [4], 26.7 µM; in [5] it was 97.7 µM; in experiment [6], 38.7 µM. For the same compound, the TGI in experiment [7] is 39.8 µM; in [8], 31.1 µM; in experiment [9], 22.3 µM; in experiment [10], more than 100 µM.

With `Cc1ccccc1NC(=O)Cc1csc(N=Nc2c(O)[nH]c3ccccc23)n1`, the TGI in experiment [1] was more than 100 µM; in experiment [2], more than 100 µM; in experiment [3], more than 100 µM; in experiment [4] it was more than 100 µM; in experiment [5], 84.9 µM; in experiment [6] it was 62.7 µM. Besides, the TGI in [7] was more than 100 µM; in experiment [8] it was more than 100 µM; in [9], more than 100 µM; in [10], more than 1 µM.

On to `O=C1N(c2ccccc2)C(=S)/C(=C/c2ccc(Cl)cc2)N1c1ccc(Cl)cc1`, for which the TGI in experiment [1], in experiment [2], in experiment [3], in experiment [4], in experiment [5] and in experiment [6] was more than 100 µM each time. The TGI in experiment [7] was more than 100 µM; in experiment [8] it was 53.3 µM; in experiment [9], more than 100 µM; in [10], more than 100 µM.

Take `COC(=O)C(NC(=O)OC(C)(C)C)P(=O)(OC)OC` (stereo not given): the TGI in experiment [1], in [2], in experiment [3], in experiment [4], in experiment [5] and in [6] was more than 100 µM each time. Moreover, the TGI in experiment [7], in experiment [8], in experiment [9] and in experiment [10] was more than 100 µM in each case.

Regarding `COc1ccc(-n2cnc3c(NC(Cc4ccccc4)C(=O)O)ncnc32)cc1` (stereo not given), the TGI in experiment [1], in experiment [2], in experiment [3], in experiment [4], in experiment [5] and in experiment [6] was more than 100 µM each time. Also, the TGI in [7], in experiment [8], in experiment [9] and in [10] was more than 100 µM in each case.

For the compound `COCCN1C(=O)C2c3[nH]c4ccccc4c3C3CCC(C(C)(C)C)CC3C2C1=O` (stereo not given), the TGI was 36.3 µM in experiment [1]; 31.8 µM in [2]; 37.6 µM in [3]; 57.3 µM in experiment [4]; 38.8 µM in [5]; 36.8 µM in experiment [6]. In addition, the TGI was 39.5 µM in experiment [7], more than 10 µM in experiment [8], 30.1 µM in experiment [9] and 32.3 µM in experiment [10].

As for `CN(C)CCNC(=O)c1c(O)ccc2c1c1c(n2CCc2ccccc2)C(=O)c2ccccc2C1=O`, the TGI in experiment [1] came to 15.6 µM; in experiment [2] it was 10.4 µM; in experiment [3] it was 15 µM; in experiment [4], 28.8 µM; in experiment [5], 27.1 µM; in experiment [6], 24.6 µM. For the same compound, the TGI in experiment [7] is 23.2 µM; in [8] it was 5.56 µM; in experiment [9] it was 5.34 µM; in experiment [10], 4.57 µM.

As for `COc1cc(/C=N/NC2=NCCN2)ccc1O`, the TGI in experiment [1], in experiment [2], in experiment [3], in experiment [4], in experiment [5] and in experiment [6] was more than 100 µM in each case. Moreover, the TGI in [7], in [8], in experiment [9] and in experiment [10] was more than 100 µM throughout.

Regarding `C=C1C(=O)OC2C3OC(C)(CCC(O)C3COC(C)=O)CC(OC(=O)/C(=C/C)COC(C)=O)C12` (stereo not given), the TGI in [1] turned out to be 0.141 µM; in [2] it was 1.96 µM; in experiment [3], 7.84 µM; in [4], 2.93 µM; in experiment [5], 31.3 µM; in experiment [6], 12.3 µM. Further, the TGI in experiment [7] was found to be 22.1 µM; in experiment [8], 0.971 µM; in experiment [9], 0.645 µM; in experiment [10], 0.431 µM.

On to `O=C(Nc1ccc2ccccc2c1)c1cc2cc(CCl)ccc2oc1=O`, for which the TGI in experiment [1] is more than 100 µM; in [2] it was more than 100 µM; in experiment [3], 73.5 µM; in experiment [4], more than 100 µM; in experiment [5] it was 8.73 µM; in experiment [6], more than 100 µM. Also, the TGI in [7], in experiment [8], in experiment [9] and in experiment [10] was more than 100 µM throughout.
